Assay: logP by HPLC on reversed-phase columns (EEC Directive 79/831 Annex V.A8)
Assay type: physicochemical
Conditions: for log p [c]: pH 7.8; for log p [a]: pH 2.3
Experimental: The logP values were measured in accordance with EEC Directive 79/831 Annex V.A8 by HPLC (High Performance Liquid Chromatography) on reversed-phase columns (C 18) using the methods below:
[a] The determination was carried out in the acidic range at pH 2.3 using the mobile phases 0.1% aqueous phosphoric acid and acetronitrile linear gradient from 10% acetonitrile to 95% acetronitrile. [b] The LC-MS determination in the acid range was carried out at pH 2.7 using the mobile phases 0.1% aqueous formic acid and acetonitrile (contains 0.1% formic acid) linear gradient from 10% acetonitrile to 95% acetonitrile. [c] The LC-MS determination in the neutral range was carried out at pH 7.8 using the mobile phases 0.001 molar aqueous ammonium bicarbonate solution and acetonitrile linear gradient from 10% acetonitrile to 95% acetonitrile.

SMILES	log p [b] (pH 2.7)	log p [c]	other results
CCCCCCC1COC(c2cccc(Nc3ncc(Cl)c(NC4CC4)n3)c2)O1 (centres unmarked) [Example 38]	4.14	5.29	
CCCCC1COC(c2cccc(Nc3ncc(Cl)c(NC4CC4)n3)c2)O1 (centres unmarked) [Example 39]	3.16	4.4	
CCN(CC)CC1COC(c2cccc(Nc3ncc(Cl)c(NC4CC4)n3)c2)O1 (centres unmarked) [Example 40, 5-Chloro-N^4-cyclopropyl-N^2-(3-{4-[(diethylamino)methyl]-1,3-dioxolan-2-yl}phenyl)-pyrimidine-2,4-diamine]			chromatographic logP (pH 2.7, log p [b]): 1.07; chromatographic logP (pH 2.7, logP (pH 2.7)): 1.05; chromatographic logP (pH 7.8, log p [c]): 3.9
Clc1cnc(Nc2cccc(C3OCC(CN4CCOCC4)O3)c2)nc1NC1CC1 (centres unmarked) [Example 41]		2.54[c]	
OCC1COC(c2cccc(Nc3ncc(Cl)c(NC4CC4)n3)c2)O1 (centres unmarked) [Example 42]	1.16	1.96	
Clc1cnc(Nc2cccc(C3OCC(CN4CCCC4)O3)c2)nc1NC1CC1 (centres unmarked) [Example 43]	0.99[b]		
Clc1cnc(Nc2cccc(C3OC4CCCCC4O3)c2)nc1NC1CC1 (centres unmarked) [Example 44]	2.65	3.99	
FC(F)(F)CNc1nc(Nc2cccc(C3OCCO3)c2)ncc1Cl [Example 45]	2.35	2.73	
Clc1cnc(Nc2cccc(C3OCCS3)c2)nc1NC1CC1 (centres unmarked) [Example 46, 5-Chloro-N^4-cyclopropyl-N^2-[3-(1,3-oxathiolan-2-yl)phenyl]pyrimidine-2,4-diamine]			chromatographic logP (pH 2.7, log p [b]): 2.05; chromatographic logP (pH 2.7, logP (pH 2.7)): 2.05; chromatographic logP (pH 7.8, log p [c]): 3.26
Clc1cnc(Nc2cccc(C3SCCS3)c2)nc1NC1CC1 [Example 47]	2.42	3.68	
CC1(c2cccc(Nc3ncc(C(F)(F)F)c(NC4CC4)n3)c2)OCCCO1 [Example 48]	3.29	3.64	
Ic1cnc(Nc2cccc(C3OCCO3)c2)nc1NC1CC1 [Example 49]	1.75	3.02	
Clc1ccc(Nc2ncc(Cl)c(NC3CC3)n2)cc1C1OCCO1 [Example 50]	2.31	3.28	
Fc1cnc(Nc2cccc(C3OCCCO3)c2)nc1NC1CC1 [Example 51]	1.28[b]	2.4	log p [a]: 1.23
FC(F)CNc1nc(Nc2cccc(C3OCCCO3)c2)ncc1Cl [Example 52]	1.97[b]	2.68	log p [a]: 1.6
FC(F)(F)CNc1nc(Nc2cccc(C3OCCCO3)c2)ncc1Cl [Example 53]	2.48[b]	2.86	log p [a]: 2.08
C#CCNc1nc(Nc2cccc(C3OCCCO3)c2)ncc1Cl [Example 54]	1.67[b]	2.48	log p [a]: 1.38
Cc1cnc(Nc2cccc(C3OCCCO3)c2)nc1NC1CC1 [Example 55]	1.28[b]	2.37	log p [a]: 1.32
COCC(C)Nc1nc(Nc2cccc(C3OCCCO3)c2)ncc1Cl (centres unmarked) [Example 56]	1.69[b]	2.92	log p [a]: 1.46
Ic1cnc(Nc2cccc(C3OCCCO3)c2)nc1NC1CC1 [Example 57]	2.23[b]	3.18	log p [a]: 1.6
Cc1cnc(Nc2cccc(C3OCCO3)c2)nc1NC1CC1 [Example 58]	1.21[b]	2.25	log p [a]: 1.21
Fc1cnc(Nc2cccc(C3OCCO3)c2)nc1NC1CC1 [Example 59]	1.60[b]	2.28	log p [a]: 1.14
FC(F)CNc1nc(Nc2cccc(C3OCCO3)c2)ncc1Cl [Example 60]	1.88[b]	2.55	log p [a]: 1.49
COCC(C)Nc1nc(Nc2cccc(C3OCCO3)c2)ncc1Cl (centres unmarked) [Example 61]	1.62[b]		
Clc1ccc(Nc2ncc(Cl)c(NC3CC3)n2)cc1C1OCCCO1 [Example 62]	2.44	3.47	
COC(OC)c1cccc(Nc2ncc(Cl)c(NC3CC3)n2)c1 [Example 63]	1.87	3.07	
CCOC(OCC)c1cccc(Nc2ncc(Cl)c(NC3CC3)n2)c1 [Example 64]	2.58	3.86	

SMILES	log p [b] (pH 2.7)	log p [c]	other results
CC(C)OC(OC(C)C)c1cccc(Nc2ncc(Cl)c(NC3CC3)n2)c1 [Example 65]		4.44[c];	
CCCCOC(OCCCC)c1cccc(Nc2ncc(Cl)c(NC3CC3)n2)c1 [Example 66]	4.64	5.83	logP (pH 2.7) (pH 2.7): 4.64
CC1(c2cccc(Nc3ncc(C(F)(F)F)c(NCC4CC4)n3)c2)OCCCO1 [Example 68]	3.42[b]		
CC1(c2cccc(Nc3ncc(C(F)(F)F)c(NC4CCC4)n3)c2)OCCCO1 [Example 69]	3.81	4.24	
CC1(C)COC(C)(c2cccc(Nc3ncc(Cl)c(NC4CC4)n3)c2)OC1 [Example 71]	2.99	4.35	
CC1COC(C)(c2cccc(Nc3ncc(C(F)(F)F)c(NC4CC4)n3)c2)O1 (centres unmarked) [Example 72]	3.52	3.94	
CC1(C)COC(C)(c2cccc(Nc3ncc(C(F)(F)F)c(NC4CC4)n3)c2)OC1 [Example 73]	4.32	4.7	
CCC1(c2cccc(Nc3ncc(Cl)c(NC4CC4)n3)c2)OCC(C)O1 (centres unmarked) [Example 74]	2.67	4.1	
CC1CC1Nc1nc(Nc2cccc(C3OCCO3)c2)ncc1Cl (centres unmarked) [Example 75]		3.21[c]	
CC1CC1Nc1nc(Nc2cccc(C3(C)OCCO3)c2)ncc1Cl (centres unmarked) [Example 76]	2.32	3.67	
Brc1cnc(Nc2ccc(C3OCCCO3)cc2)nc1NC1CCC1 [Example 77]	2.2	3.61	
FC(F)(F)c1cnc(Nc2ccc(C3OCCCO3)cc2)nc1NC1CC1 [Example 78]	2.72	3.21	
Brc1cnc(Nc2cccc(C3OCC(C4CC4)CO3)c2)nc1NC1CC1 (centres unmarked) [Example 79]	2.77	4.03	
Clc1cnc(Nc2cccc(C3OCC(C4CC4)CO3)c2)nc1NC1CCC1 (centres unmarked) [Example 80]	2.93	4.43	
C=C1COC(c2cccc(Nc3ncc(Br)c(NC4CC4)n3)c2)OC1 [Example 81]	2.1	3.27	
C=C1COC(c2cccc(Nc3ncc(Br)c(NC4CCC4)n3)c2)OC1 [Example 82]	2.43	3.85	
CC1COC(c2cccc(Nc3ncc(C(F)(F)F)c(NC4CC4)n3)c2)O1 (centres unmarked) [Example 83]	2.94[b]	3.45	log p [a]: 2.44
CC1COC(c2cccc(Nc3ncc(Br)c(NC4CC4)n3)c2)O1 (centres unmarked) [Example 84]	2.03	3.25	
CC1COC(c2cccc(Nc3ncc(Br)c(NC4CCC4)n3)c2)O1 (centres unmarked) [Example 85]	2.39	3.84	
CC1COC(c2cccc(Nc3ncc(Cl)c(NC4CCC4)n3)c2)O1 (centres unmarked) [Example 86]	2.2	3.68	
CC1COC(c2cccc(Nc3ncc(C(F)(F)F)c(NC4CCC4)n3)c2)O1 (centres unmarked) [Example 87]	3.51	4.04	
CCC1COC(c2cccc(Nc3ncc(C(F)(F)F)c(NC4CC4)n3)c2)O1 (centres unmarked) [Example 88]	3.48	3.9	
CCC1COC(c2cccc(Nc3ncc(Br)c(NC4CCC4)n3)c2)O1 (centres unmarked) [Example 89]	2.88	4.35	
CCC1COC(c2cccc(Nc3ncc(Cl)c(NC4CCC4)n3)c2)O1 (centres unmarked) [Example 90]	2.65	4.18	
C=C1COC(c2cccc(Nc3ncc(Cl)c(NC4CCC4)n3)c2)OC1 [Example 91]		3.73[c]	
C=C1COC(c2cccc(Nc3ncc(Cl)c(NC4CC4)n3)c2)OC1 [Example 92]	2.01	3.18	
